# Assay results reported in ChEMBL document CHEMBL1201862, “PubChem BioAssay data set” (2004).
# Values joined by “and” are separate entries in the source; they are usually repeats but may differ in a detail not shown here. Equal entries are not always repeated.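 Briefly, cells in 96-well plates were exposed to five compound concentrations for 48 h, and endpoints were estimated by linear interpolation. GI50 is the concentration that inhibits growth by half.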 Active and inactive are the calls of the source. Cut-off read from the data, not from the text of the source: active = GI50 up to about 1.1 µM and inactive = higher.
# Columns and labels:
# Test in all cases: NCI tumour cell line growth inhibition, 48 h
# NCI-H522 = system: NCI-H522
# SK-MEL-2 = system: SK-MEL-2
# HT-29 = system: HT-29
# COLO 205 = system: COLO 205
# ACHN = system: ACHN
# HOP-92 = system: HOP-92
# MDA-N = system: MDA-N
# Hs-578T = system: Hs-578T
# RXF 393 = system: RXF 393
# HCT-15 = system: HCT-15
# NCI-H23 = system: NCI-H23
# SK-MEL-5 = system: SK-MEL-5
# OVCAR-4 = system: OVCAR-4
# HCT-116 = system: HCT-116
# SR = system: SR
# PC-3 = system: PC-3
# MDA-MB-435 = system: MDA-MB-435
# UACC-257 = system: UACC-257
# HCC 2998 = system: HCC 2998
Structure (SMILES),GI50 (NCI-H522),GI50 (SK-MEL-2),GI50 (HT-29),GI50 (COLO 205),GI50 (ACHN),GI50 (HOP-92),GI50 (MDA-N),GI50 (Hs-578T),GI50 (RXF 393),GI50 (HCT-15),GI50 (NCI-H23),GI50 (SK-MEL-5),GI50 (OVCAR-4),GI50 (HCT-116),GI50 (SR),GI50 (PC-3),GI50 (MDA-MB-435),GI50 (UACC-257),GI50 (HCC 2998)
O=C(CSc1nnc(-c2ccccn2)s1)N/N=C/c1ccc([N+](=O)[O-])cc1,> 100 µM (inactive),77.1 µM (inactive),> 100 µM (inactive),> 100 µM (inactive),53.8 µM (inactive),16.3 µM (inactive),> 100 µM (inactive),32.1 µM (inactive),12.1 µM (inactive),45.6 µM,> 100 µM (inactive),> 100 µM (inactive),> 100 µM (inactive),55.7 µM (inactive),> 100 µM (inactive),65.8 µM (inactive),> 100 µM (inactive),> 100 µM (inactive),
Brc1ccc(-c2cn3ccncc3n2)cc1,> 100 µM (inactive),> 100 µM (inactive),> 100 µM (inactive),> 100 µM (inactive),> 100 µM (inactive),> 100 µM (inactive),> 100 µM (inactive),> 100 µM (inactive),> 100 µM (inactive),> 100 µM,> 100 µM (inactive),> 100 µM (inactive),> 100 µM (inactive),> 100 µM (inactive),> 100 µM (inactive),> 100 µM (inactive),> 100 µM (inactive),14.9 µM (inactive),
O=C1CC(C(OCc2ccccc2)C(OCc2ccccc2)C(COCc2ccccc2)OCc2ccccc2)CC(=O)N1 (centres undefined),,,> 75 µM (inactive),> 100 µM (inactive),> 75 µM (inactive),,> 75 µM (inactive),> 75 µM (inactive) and 88.7 µM (inactive),42.9 µM (inactive) and 29.6 µM (inactive),> 75 µM,> 75 µM (inactive),> 75 µM (inactive),> 75 µM (inactive),> 75 µM (inactive),> 75 µM (inactive),> 75 µM (inactive),> 75 µM (inactive),> 100 µM (inactive),> 75 µM (inactive)
CC(=O)NC1C(OCc2ccccc2)OC(CO)C(O)C1OCC(=O)N1CCCC1C(=O)N[C@@H](CCC(=O)NCCNCCNc1c2ccccc2nc2cccc([N+](=O)[O-])c12)C(N)=O (some centres undefined),1.45 µM (inactive),3.67 µM (inactive),1.46 µM (inactive),1.88 µM (inactive),2.11 µM (inactive),1.37 µM (inactive),2.88 µM (inactive),3.89 µM (inactive),2.17 µM (inactive),2.11 µM,2.51 µM (inactive),1.48 µM (inactive),3.91 µM (inactive),0.979 µM (active),,2.94 µM (inactive),2.65 µM (inactive),6.28 µM (inactive),2.67 µM (inactive)
CNC(C#N)c1ccc(OC)cc1 (centres undefined),75.5 µM (inactive),26.4 µM (inactive),61.1 µM (inactive),71.3 µM (inactive),> 100 µM (inactive),92.5 µM (inactive),33.1 µM (inactive),> 100 µM (inactive),> 100 µM (inactive),> 100 µM,> 100 µM (inactive),25.8 µM (inactive),> 100 µM (inactive),57 µM (inactive),,54 µM (inactive),33.6 µM (inactive),54.8 µM (inactive),> 100 µM (inactive)
O=C(O)c1cc2cc(c1)/N=C/c1ccccc1OCc1cccc(n1)COc1ccccc1/C=N/2,> 25 µM (inactive),23.8 µM (inactive),19 µM (inactive),> 25 µM (inactive),23.2 µM (inactive),6.73 µM (inactive),4.53 µM (inactive),4.94 µM (inactive),> 25 µM (inactive),8.45 µM,> 25 µM (inactive),,12.2 µM (inactive),9.14 µM (inactive),6.38 µM (inactive),24 µM (inactive),3.78 µM (inactive),> 25 µM (inactive),
Nc1ccc(-c2nc3cc(F)ccc3s2)cc1CO,41.7 µM (inactive),23.9 µM (inactive),> 100 µM (inactive),> 100 µM (inactive),25.3 µM (inactive),17.3 µM (inactive),> 100 µM (inactive),34.4 µM (inactive),15.5 µM (inactive),41 µM,0.436 µM (active),> 96.8 µM (inactive),> 100 µM (inactive),53.6 µM (inactive),,29.8 µM (inactive),> 100 µM (inactive),> 69.3 µM (inactive),0.313 µM (active)
COc1ccc(COC(=O)NNC(=O)C2CSC(c3ccccc3)N2C(C)=O)cc1 (centres undefined),> 100 µM (inactive),> 100 µM (inactive),> 100 µM (inactive),,> 100 µM (inactive),> 100 µM (inactive),> 100 µM (inactive),> 100 µM (inactive),,> 100 µM,> 100 µM (inactive),> 100 µM (inactive),> 100 µM (inactive),> 100 µM (inactive),,> 100 µM (inactive),> 100 µM (inactive),> 100 µM (inactive),> 100 µM (inactive)
CCCCCCCCCCCCCCCCOCC(CCl)OP(=O)(O)OP(=O)(O)OCC1OC(n2ccc(N)nc2=O)C(O)C1O (centres undefined),> 100 µM (inactive),> 100 µM (inactive),> 100 µM (inactive),> 100 µM (inactive),> 100 µM (inactive),> 100 µM (inactive),> 100 µM (inactive),> 100 µM (inactive),> 100 µM (inactive),> 100 µM,> 100 µM (inactive),> 100 µM (inactive),> 100 µM (inactive),> 100 µM (inactive),,87.7 µM (inactive),> 100 µM (inactive),> 100 µM (inactive),> 100 µM (inactive)
COc1cc2c3c(n(C)c(=O)c2cc1OC)-c1cc2c(cc1/C3=C\CCCI)OCO2,6.75 µM (inactive),> 100 µM (inactive),20.4 µM (inactive),18.1 µM (inactive),0.531 µM (active),,> 70.8 µM (inactive),4.11 µM (inactive),10.6 µM (inactive),2.56 µM,12.2 µM (inactive),10.4 µM (inactive),,1.47 µM (inactive),0.239 µM (active),> 53.5 µM (inactive),19.3 µM (inactive),> 100 µM (inactive),
Cc1c(S(=O)(=O)N/C(=N\O)Nc2ccc(Cl)c(Cl)c2)sc2ccc(Cl)cc12,15.9 µM (inactive),18.9 µM (inactive),14.4 µM (inactive),17.9 µM (inactive),12.1 µM (inactive),22.2 µM (inactive),17.5 µM (inactive),28.6 µM (inactive),16.9 µM (inactive),17.1 µM,17.8 µM (inactive),15.1 µM (inactive),15.1 µM (inactive),17.8 µM (inactive),,18.6 µM (inactive),17.9 µM (inactive),19.9 µM (inactive),19.9 µM (inactive)
CCSc1n/c(=C\c2ccco2)c2nnnn12,> 100 µM (inactive),> 100 µM (inactive),> 100 µM (inactive),> 100 µM (inactive),> 100 µM (inactive),> 100 µM (inactive),> 100 µM (inactive),> 100 µM (inactive),> 100 µM (inactive),> 100 µM,> 100 µM (inactive),> 100 µM (inactive),> 100 µM (inactive),> 100 µM (inactive),,> 100 µM (inactive),> 100 µM (inactive),> 100 µM (inactive),> 100 µM (inactive)
